This is an account of results in patent publication US8796303B2, “Imidazo[2,1-G][1,7]naphthyridines for treating respiratory syncytial virus infections” (Biota Scientific Management Pty Ltd., priority 2010, dated 2014).

The target in one data set is T1, hERG ion channel (Homo sapiens, UniProt Q12809).
T1 construct: expressed in transfected cells; host or cells: CHO cells
The data set can be described thus: hERG ion channel inhibition (ScreenPatch assay, IonWorks Quattro). To be noted: for IC50: CHO cells stably transfected with hERG; for inhibition at 5 min, 100 µM: human, CHO cells stably transfected with hERG cDNA. Format: cell-based. The method, then:
The effects of compounds of the invention on the on hERG ion channel can be evaluated using an IonWorks Quattro™ system essentially as described in the literature (see for example Bridgland-Tayor et al, 2006, J. Pharmacological and Toxicological Methods 54: 189).
Four compound concentrations were applied to naïve cells via steel needles of a 48-channel pipettor. Each application consisted of addition of 6 μL of 2× concentrated test compounds to the total of 12 μL of final volume of the extracellular well of the Population Patch Clamp™ (PPC) planar electrode. Duration of exposure to each test compound concentration was at least five minutes.
Intracellular solution was loaded into the intracellular compartment of the PPC planar electrode. Cell suspensions (CHO cells stably transfected with hERG cDNA) are pipetted into the wells of the PPC planar electrode. After establishment of a whole-cell configuration, membrane currents were recorded using patch clamp amplifier in the IonWorks Quattro™ system. Two recordings of the ion channel currents were performed (before and 5 minutes after test compound application). hERG current was measured using a pulse pattern with fixed amplitudes (conditioning prepulse: −80 mV for 25 ms; test pulse +40 mV for 80 ms) from a holding potential of 0 mV. hERG current was measured as a difference between the peak current at 1 ms after the test step to +40 mV and the steady state current at the end of the step to +40 mV.
Data acquisition and analyses was performed using the IonWorks Quattro™ system operation software. The decrease in current amplitude after test compound application was used to calculate the percent block relative to control. A compound is considered to have a low hERG inhibition when the hERG IC50 is >500 times higher than the RSV A2 EC50. The hERG IC50 of the compounds tested was >500 times higher than the corresponding RSV A2 EC50 values.
A general note: Block of hERG is tested as a sign of cardiac risk.

Data set [1] is described as follows: Aqueous solubility by laser nephelometry. Format: physicochemical. To be noted: kinetic from dmso stock, 1% DMSO, 30 minute incubation at 25° C., range 1.6-100. The protocol:
Test compounds prepared in DMSO were screened in duplicate over a range of concentrations (1.6-100 ug/mL) in different aqueous media (for example pH2 or pH6.5 buffers which are relevant to the stomach and upper regions of the small intestine). Test compounds were serially diluted in 100% DMSO ranging from 10-0.16 mg/mL. These diluted compounds were then added to test plates (UV Star Griener 96 well plates) containing assay buffers with a further 1:100 dilution keeping a constant 1% DMSO concentration across the plate.

For another data set, the system named is RSV A2. Nature of the data set: RSV antiviral CPE assay in HEp2 cells (MTT). In kind it is cell-based, respiratory syncytial virus. The note with it: human respiratory syncytial virus, HEp-2, 120 h; HEp2 cells, RSV A2 moi ~0.01, 5 days, CPE by MTT. The method, then: Compounds of the invention were tested for their antiviral activity against respiratory syncytial virus. Cytopathic effect (CPE) assays were performed essentially as described in the literature (see for example Watanabe et al, 1994, J. Virological Methods, 48:257). Serial dilutions of the test compounds were made in 96 well plates. HEp2 cells (1.0×10^4 cells/well) were infected with RSV at a low multiplicity of infection (e.g. RSV A2 at an moi of ˜0.01) and added to plates to assess antiviral activity. Uninfected HEp2 cells were used to assess compound cytotoxicity. Assays were incubated for 5 days at 37° C. in a 5% CO2 atmosphere. The extent of CPE was determined via metabolism of the vital dye 3-(4,5-dimethylthiaxol-2-yl)-2,5-diphenyltetrazolium bromide (MTT). MTT (1 mg/ml) was added to each well and plates incubated for 2 hours incubation at 37° C. Wells were aspirated, iso-propanol (200 μL) was added and absorbance values read at 540/650 nm. Compound concentrations that inhibited CPE by 50% (EC50) and developed cytotoxicity (CC50) were calculated using non-linear regression analysis. The CC50 values of the compounds tested were determined to be >5000 nM.

The mark [2] stands for this setting: pH 2, simulated gastric fluid, pH2 buffer, read-out: Solubility at pH2.
[3] abbreviates: pH 6.5, aqueous buffer, pH6.5 buffer, read-out: Solubility at pH6.5.

The structures appear in SMILES notation. Converted amounts (≈) assume the structure as drawn. Read-outs that look alike come from different tables or passages of the source. A value given as a limit tells only on which side of the number the result lay.

As usually defined, the IC50 is the concentration needed to halve the response being measured. As usually defined, the inhibition is the relative decrease from the control value, in per cent. A higher inhibition goes with strong suppression. As a reminder, the solubility is the concentration that dissolves in the medium under given conditions. The EC50 is the concentration giving half of the maximal effect. A lower EC50 goes with a more potent agent.

T1 sequence (Q12809 whole entry): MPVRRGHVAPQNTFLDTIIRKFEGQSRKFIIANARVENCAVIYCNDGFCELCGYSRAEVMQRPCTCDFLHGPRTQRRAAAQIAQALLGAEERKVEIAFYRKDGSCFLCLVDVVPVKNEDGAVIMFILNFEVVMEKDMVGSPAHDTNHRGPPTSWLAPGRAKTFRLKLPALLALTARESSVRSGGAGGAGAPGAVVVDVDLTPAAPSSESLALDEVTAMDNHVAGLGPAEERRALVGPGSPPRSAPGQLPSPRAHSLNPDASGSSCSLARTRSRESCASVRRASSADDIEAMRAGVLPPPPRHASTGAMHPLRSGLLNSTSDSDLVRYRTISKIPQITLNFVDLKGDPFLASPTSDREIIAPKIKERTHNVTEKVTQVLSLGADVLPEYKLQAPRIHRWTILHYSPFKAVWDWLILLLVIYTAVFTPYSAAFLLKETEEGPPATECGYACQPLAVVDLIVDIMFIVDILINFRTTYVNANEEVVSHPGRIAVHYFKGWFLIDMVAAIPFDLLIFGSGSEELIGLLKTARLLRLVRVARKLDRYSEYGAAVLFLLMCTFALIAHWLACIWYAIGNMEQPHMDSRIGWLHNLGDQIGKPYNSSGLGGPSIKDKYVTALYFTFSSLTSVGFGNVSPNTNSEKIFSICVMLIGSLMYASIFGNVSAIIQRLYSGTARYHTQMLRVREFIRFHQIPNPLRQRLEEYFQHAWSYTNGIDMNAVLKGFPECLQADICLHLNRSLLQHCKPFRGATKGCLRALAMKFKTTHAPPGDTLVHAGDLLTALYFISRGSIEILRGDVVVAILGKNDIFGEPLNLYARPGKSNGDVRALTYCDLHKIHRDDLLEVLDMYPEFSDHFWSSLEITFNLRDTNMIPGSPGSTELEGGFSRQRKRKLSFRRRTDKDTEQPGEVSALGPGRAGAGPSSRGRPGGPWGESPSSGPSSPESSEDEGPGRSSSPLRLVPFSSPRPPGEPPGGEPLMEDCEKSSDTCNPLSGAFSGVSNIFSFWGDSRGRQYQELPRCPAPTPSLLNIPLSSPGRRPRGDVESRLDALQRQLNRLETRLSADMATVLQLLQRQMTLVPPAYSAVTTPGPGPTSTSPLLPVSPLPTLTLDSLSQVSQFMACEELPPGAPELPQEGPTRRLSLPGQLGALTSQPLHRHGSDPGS

`Cc1nocc1C(=O)N1CCN2C(=O)c3ncccc3C[C@]12c1ccc(Cl)cc1` (single isomer, unassigned) [Compound 2A] came in with an IC50 against hERG ion channel of 130 µM. The inhibition at 5 min, 100 µM at hERG ion channel amounted to 41.4%. Further, the figures for the solubility at 30 min in data set [1] (setting [2]) and in data set [1] (setting [3]) were 0.05 to 0.1 mg/mL (≈ 122 to 245 µM) and above 0.1 mg/mL, respectively. Further, the 50% effective concentration (EC50) in the data set on RSV A2 came to 0.0041 µM.
Turning to `Cc1nocc1C(=O)N1CCN2C(=O)c3ncccc3CC12c1ccc(Cl)cc1` (stereo not shown) [Compound 2, 10a-(4-chlorophenyl)-1-[(3-methyl-1,2-oxazol-4-yl)carbonyl]-2,3,10,10a-tetrahydroimidazo[2,1-g][1,7]naphthyridin-5(1H)-one], on hERG ion channel, the concentration for half-maximal inhibition (IC50) turned out to be 99.2 µM. This compound displayed an inhibition at 5 min, 100 µM against hERG ion channel of 50.2%. For the same compound, the solubility at 30 min is 0.05 to 0.1 mg/mL (≈ 122 to 245 µM) in data set [1] (setting [2]) and above 0.1 mg/mL in data set [1] (setting [3]). A half-maximal response with RSV A2 (EC50) required 0.0052 µM.
